Measured values taken from patent US11246872B2, “Topical acyclovir formulations and uses thereof” (priority 2019, dated 2022).
Where two headings read alike, the source gives them in different places.

Type: physicochemical
Description: This Example studies the solubility and stability of acyclovir in various topical excipients. Table 1 and Table 2 below indicate the various excipients that solubility was tested in and stability of acyclovir in these excipients, respectively. [table]

SMILES: Nc1nc2c(ncn2COCCO)c(=O)[nH]1 [Acyclovir]
- Saturated solubility of Acyclovir (pH 4): 0.10 (0.10-0.10) % w/w
- Saturated solubility of Acyclovir (pH 6): 0.10 (0.09-0.10) % w/w
